Laboratory results: a melting point compilation (Tetko et al.; mined from patent text by program, amines drawn as free bases though some values may be those of a salt)

Row | SMILES | melting point
1 | Cc1cc(CC(=O)O)c(CC(C)N)cc1C (centres undefined) | 222 to 223 °C
2 | COc1ccc(C2CCc3ccccc3C2O)cc1 (centres undefined) | 89 to 90.5 °C
3 | Cc1csc2c1cc(C(=O)c1ccccc1)n2CC(=O)O | 197 °C
4 | Cc1cc(C)c(-n2c(C)cc(C)c(C#N)c2=O)cc1N | 218 to 219 °C
5 | O=C1NC(=O)C(Cc2ccc(SCc3ccccc3)cc2)S1 (centres undefined) | 102 to 103 °C
6 | O=Cc1c(Cl)ccc(C(=O)O)c1Cl | 188 to 190 °C
7 | COc1ccc2cccc(C(CO)CNC(=O)C(F)(F)F)c2c1 (centres undefined) | 138 to 140 °C
8 | COc1cc2c(cc1OC)CC(NC(=O)C1CCCN1C(C)=O)CC2 (centres undefined) | 63 to 65 °C
9 | O=c1ccc(C(F)(F)F)cn1-c1ccc(NCCCl)cc1Cl | 160 to 162 °C
10 | CCNC(=O)NCCCNn1c(COCC)nc2c(N)nc3c(c21)CCCC3 | 189 to 191 °C
11 | CN(CC(=C1NCCCS1)[N+](=O)[O-])c1ccccc1 | 105 to 106 °C
12 | CCOc1c(OC)c(OC)cc(C(=O)O)c1-c1c(C(=O)O)cc(OC)c2c1OCO2 | 236 to 237 °C
13 | Cc1oc(Cc2ccccc2)c(C(=O)c2cc(C(C)C)c(O)c(C(C)C)c2)c1C | 138 °C
14 | CCOC(=O)C1=C(C)NC(COC(C)=O)=C(C(=O)OCC)C1c1cccc([N+](=O)[O-])c1 (centres undefined) | 133 to 135 °C
15 | COc1cccc(S(=O)(=O)Nc2nccnc2OC)c1 | 133 to 134 °C
16 | CCOC(=O)C(=O)Nc1ccc(C(=O)O)cc1NC(=O)C(=O)OCC | 251 °C
17 | Cc1nc(-n2ccc(C(F)(F)F)cc2=O)sc1C(=O)NCc1ccccc1 | 197 to 198 °C
18 | COc1ccc(C(=O)CCC(=O)O)c(Cl)c1Cl | 142 to 144 °C
19 | COc1nc(N2CCCCC2)nc(OC)c1O | 109 °C
20 | CNC(=O)C(Cc1ccc(OC)cc1)NC(=O)C(CC(C)C)C(CC(=O)NCC(=O)O)SC(C)=O (centres undefined) | 188 to 192 °C
21 | Cc1ccc(-c2noc3c(Cl)c(OCC(=O)O)ccc23)s1 | 235 to 238 °C
22 | N#Cc1c(Nc2cccc(Cl)c2)nn(Cc2ccccc2)c1N | 234 to 236 °C
23 | CCc1ncc(CCCOc2c(C)cc(-c3nnn(C)n3)cc2C)n1C | 96 to 98 °C
24 | CN1c2nnnn2-c2ccc(Cl)cc2C1c1ccccc1 (centres undefined) | 280 °C
25 | CC(C)C(C)(C#N)N1C(=O)c2cccc(Cl)c2C1=O (centres undefined) | 71 to 72 °C

Further lines, results first:

Row | melting point | SMILES
26 | > 340 °C | O=C1Nc2cc(Cl)ccc2C(=O)C1c1cccnc1 (centres undefined)
27 | 188 °C | Cc1cccc(C(=O)NN=Cc2ccc3ccccc3n2)c1
28 | 158 to 159 °C | O=C(O)CCc1cn(Cc2ccc3cc(OCc4cccnc4)ccc3c2)cc1-c1ccccc1
29 | 250 to 251 °C | Cc1nnc(-c2ccc3occ(-c4ccc(C(N)=O)cc4)c3c2)o1
30 | 182 to 183 °C | COc1ccc(C(=O)Nc2ccccc2)cc1NC(=S)Nc1ccc(F)cc1
31 | 232 °C | O=C(NNC(=O)c1ccncc1)Nc1cccc2c1C(=O)c1c-2n[nH]c1-c1ccc(N2CCNCC2)cc1
32 | 167 to 168 °C | COc1ccc(Nc2ccc(OCc3ccccc3)cc2)c(C(=O)O)c1
33 | 198 to 201 °C | CCn1cc(C(=O)O)c(=O)c2cnc(N3CCN(Cc4ccc(N)cc4)CC3)nc21
34 | 103 to 106 °C | O=C(O)CCCc1cc2nc(Cl)ccc2n1S(=O)(=O)c1ccc2nccnc2c1
35 | 258 to 259 °C | CNC(=O)c1ccc(-c2cccc3nc(Nc4cc(OC)c(OC)c(OC)c4)oc23)cc1
36 | 239 to 241 °C | N#Cc1ccc(NC(=O)c2ccccc2SSc2ccccc2C(=O)Nc2ccc(C#N)cc2)cc1
37 | 107 to 110 °C | O=S(=O)(CCc1ccc(-c2ccccc2)cc1)N1CC(CN2CCCC2)Cc2ccccc21 (centres undefined)
38 | 138 °C | COc1ccc(CC(=O)NCc2ccccc2-c2ccccc2C(=O)NCc2ccc(F)cc2F)cc1
39 | 79 to 81 °C | CN(CC(O)c1cccc(O)c1)C(=O)c1cnc(N(C)C)nc1-c1ccccc1 (centres undefined)
